Source: the NIST ThermoML archive (doi:10.1016/j.tca.2014.07.001)

Conditions: Liquid; for mass density: 101.33 kPa, Vibrating tube method; for vapor or sublimation pressure: Rate of evaporation

Cc1cc(OC(=O)C(C)(C)C)cc(OC(=O)C(C)(C)C)c1
Conditions	mass density [kg/m3]	vapor or sublimation pressure [kPa]
323.1 K	977.806	–
333.1 K	969.344	–
343.1 K	960.889	–
353.1 K	952.427	–
363.1 K	943.951	–
456 K	–	1.816
460 K	–	2.127
464 K	–	2.485
468 K	–	2.894
472 K	–	3.363
476 K	–	3.898
480 K	–	4.506
484 K	–	5.197
488 K	–	5.98
492 K	–	6.865
496 K	–	7.864
500 K	–	8.989
504 K	–	10.25
508 K	–	11.67
512 K	–	13.26
516 K	–	15.03
520 K	–	17
524 K	–	19.2
528 K	–	21.65
532 K	–	24.36
536 K	–	26.58

CCCCOc1cc(C)cc(OCCCC)c1 [1,3-dibutoxy-5-methylbenzene]
Conditions	mass density [kg/m3]	vapor or sublimation pressure [kPa]
278.2 K	955.338	–
298.1 K	938.896	–
318.1 K	922.519	–
338.1 K	906	–
358.1 K	889.4	–
421 K	–	1.076
425 K	–	1.286
429 K	–	1.533
433 K	–	1.821
437 K	–	2.156
441 K	–	2.545
445 K	–	2.995
449 K	–	3.515
453 K	–	4.114
457 K	–	4.801
461 K	–	5.588
465 K	–	6.487
469 K	–	7.512
473 K	–	8.677
477 K	–	9.998
481 K	–	11.49
485 K	–	13.18
489 K	–	15.09
493 K	–	17.23
497 K	–	19.63
501 K	–	22.32
505 K	–	25.32
509 K	–	28.68
513 K	–	32.42
517 K	–	34.44

Cc1cc(OCC(C)C)cc(OCC(C)C)c1 [1-methyl-3,5-bis(2-methylpropoxy)benzene]
Conditions	mass density [kg/m3]	vapor or sublimation pressure [kPa]
328.2 K	908.941	–
338.2 K	901.02	–
348.2 K	893.071	–
358.2 K	885.087	–
446 K	–	2.406
449 K	–	2.737
452 K	–	3.108
455 K	–	3.524
458 K	–	3.989
461 K	–	4.508
464 K	–	5.086
467 K	–	5.729
470 K	–	6.445
473 K	–	7.238
476 K	–	8.118
479 K	–	9.091
482 K	–	10.17
485 K	–	11.35
488 K	–	12.66
491 K	–	14.1
494 K	–	15.69
497 K	–	17.43
500 K	–	19.33
503 K	–	21.42
506 K	–	23.71
509 K	–	26.21

Cc1cc(OCCc2ccccc2)cc(OCCc2ccccc2)c1 [1-methyl-3,5-bis(2-phenylethoxy)benzene]
Conditions	mass density [kg/m3]	vapor or sublimation pressure [kPa]
283.2 K	921.532	–
303.2 K	907.265	–
323.2 K	893.041	–
343.2 K	878.854	–
363.2 K	864.445	–
507 K	–	1.602
510 K	–	1.802
513 K	–	2.024
516 K	–	2.271
519 K	–	2.543
522 K	–	2.845
525 K	–	3.179
528 K	–	3.548
531 K	–	3.954
534 K	–	4.401
537 K	–	4.893
540 K	–	5.434
543 K	–	6.027
546 K	–	6.678
549 K	–	7.39
552 K	–	8.17
555 K	–	9.022
558 K	–	9.952
561 K	–	10.97
564 K	–	12.07
567 K	–	13.28
570 K	–	14.59
573 K	–	15.52

Cc1cc(OC(C)C)cc(OC(C)C)c1 [1-methyl-3,5-bis(propan-2-yloxy)benzene]
Conditions	mass density [kg/m3]	vapor or sublimation pressure [kPa]
283.2 K	963.279	–
303.2 K	945.753	–
323.2 K	928.213	–
343.2 K	910.635	–
363.2 K	892.968	–
419 K	–	2.389
422 K	–	2.713
425 K	–	3.074
428 K	–	3.478
431 K	–	3.928
434 K	–	4.428
437 K	–	4.984
440 K	–	5.601
443 K	–	6.285
446 K	–	7.041
449 K	–	7.876
452 K	–	8.796
455 K	–	9.811
458 K	–	10.93
461 K	–	12.15
464 K	–	13.49
467 K	–	14.97
470 K	–	16.58
473 K	–	18.34
476 K	–	20.26
479 K	–	22.36

CCCCC(=O)Oc1cc(C)cc(OC(=O)CCCC)c1 [3-methyl-5-(pentanoyloxy)phenyl pentanoate]
Conditions	mass density [kg/m3]	vapor or sublimation pressure [kPa]
278.2 K	1031.85	–
298.1 K	1015.28	–
318.1 K	998.841	–
338.1 K	982.449	–
358.1 K	966.043	–
464 K	–	0.708
468 K	–	0.844
472 K	–	1.004
476 K	–	1.19
480 K	–	1.406
484 K	–	1.657
488 K	–	1.948
492 K	–	2.284
496 K	–	2.671
500 K	–	3.116
504 K	–	3.626
508 K	–	4.209
512 K	–	4.875
516 K	–	5.633
520 K	–	6.495
524 K	–	7.472
528 K	–	8.579
532 K	–	9.828
536 K	–	11.24
540 K	–	12.82
544 K	–	14.6
548 K	–	16.6
552 K	–	18.83
556 K	–	21.33
560 K	–	24.11
